From ChEMBL document CHEMBL1201862, “PubChem BioAssay data set” (2004)
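A five-concentration, 48-hour dose response in 96-well plates underlies each endpoint, interpolated linearly between surrounding concentrations. The concentration for 50% growth inhibition is given as GI50.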 Activity calls are given as the source filed them. Cut-off read from the data, not from the text of the source: active = GI50 up to about 1.1 µM and inactive = higher.

Tests used:
Experiment in all cases: inhibition of tumour cell growth, NCI panel, 48 h
[1] = system: 786-0
[2] = system: ACHN
[3] = system: CCRF-CEM
[4] = system: COLO 205
[5] = system: EKVX
[6] = system: HCT-15
[7] = system: HOP-92
[8] = system: LOX IMVI
[9] = system: M14
[10] = system: NCI-H23
[11] = system: OVCAR-4
[12] = system: OVCAR-5
[13] = system: OVCAR-8
[14] = system: RXF 393
[15] = system: SK-MEL-28
[16] = system: TK-10
[17] = system: UO-31
[18] = system: MDA-MB-435
[19] = system: T47D
[20] = system: MDA-N

SMILES | GI50 [1] | GI50 [2] | GI50 [3] | GI50 [4] | GI50 [5] | GI50 [6] [µM] | GI50 [7] | GI50 [8] | GI50 [9] | GI50 [10] | GI50 [11] | GI50 [12] | GI50 [13] | GI50 [14] | GI50 [15] | GI50 [16] | GI50 [17] | GI50 [18] | GI50 [19] | GI50 [20]
Cc1nc(Nc2ccccc2)sc1C(=O)CC(=O)C(=O)Nc1c(C(C)C)cccc1C(C)C | > 100 µM (inactive) | 95.1 µM (inactive) | 89.7 µM (inactive) | > 100 µM (inactive) | 19.8 µM (inactive) | 98.9 | 32.6 µM (inactive) | 43.2 µM (inactive) | > 100 µM (inactive) | 85.5 µM (inactive) | > 100 µM (inactive) | > 100 µM (inactive) | > 100 µM (inactive) | 42 µM (inactive) | > 100 µM (inactive) | > 100 µM (inactive) | 78.5 µM (inactive) |  |  | 
NS(=O)(=O)c1nn2c(Br)c(-c3ccccc3)nc2s1 | 2.45 µM (inactive) | 4.45 µM (inactive) | 2.65 µM (inactive) | 5.24 µM (inactive) | 15.8 µM (inactive) | 2.86 | 8.77 µM (inactive) | 1.95 µM (inactive) | 3.31 µM (inactive) | 3.48 µM (inactive) | 10.6 µM (inactive) | 11.1 µM (inactive) | 2.38 µM (inactive) | 0.847 µM (active) | 9.06 µM (inactive) | 6.37 µM (inactive) | 4.02 µM (inactive) | 4.45 µM (inactive) | 3.66 µM (inactive) | 
COC(=O)/C=C1/N=C(N(C)/N=C/c2ccccc2)NC1=O | > 100 µM (inactive) |  | > 100 µM (inactive) | > 100 µM (inactive) | > 100 µM (inactive) | > 100 |  | > 100 µM (inactive) | > 100 µM (inactive) | > 100 µM (inactive) | > 100 µM (inactive) | > 100 µM (inactive) | > 100 µM (inactive) | > 100 µM (inactive) | > 100 µM (inactive) | > 100 µM (inactive) | > 100 µM (inactive) |  | > 100 µM (inactive) | > 100 µM (inactive)
Nc1nc(NC2C=C(CO)C(O)C2O)c([N+](=O)[O-])c(=O)[nH]1 (stereo not drawn) | > 100 µM (inactive) | > 100 µM (inactive) | > 100 µM (inactive) | > 100 µM (inactive) | > 100 µM (inactive) | > 100 | > 100 µM (inactive) | > 100 µM (inactive) | > 100 µM (inactive) | > 100 µM (inactive) | > 100 µM (inactive) | > 100 µM (inactive) | > 100 µM (inactive) | > 100 µM (inactive) | > 100 µM (inactive) | > 100 µM (inactive) | > 100 µM (inactive) |  |  | 
COC(=O)/C=C1\C(=O)Nc2ccc(Br)cc21 | 1.48 µM (inactive) | 1.71 µM (inactive) | 0.296 µM (active) | 1.67 µM (inactive) | 1.77 µM (inactive) | 1.16 | 1.88 µM (inactive) | 0.804 µM (active) | 2.24 µM (inactive) | 1.54 µM (inactive) | 2.23 µM (inactive) | 1.54 µM (inactive) | 2.14 µM (inactive) | 1.54 µM (inactive) | 2.68 µM (inactive) | 1.56 µM (inactive) | 2.19 µM (inactive) | 1.87 µM (inactive) | 2.16 µM (inactive) | 
O=c1c2ccccc2[nH]c2ccc3c(Cl)n[nH]c3c12 | 34.1 µM (inactive) | 27.8 µM (inactive) | 56.9 µM (inactive) | 36.4 µM (inactive) | 47.3 µM (inactive) | 35.6 | 38.5 µM (inactive) | 20.8 µM (inactive) | 60.1 µM (inactive) | 35.2 µM (inactive) | 59.4 µM (inactive) | 41.1 µM (inactive) | 40.5 µM (inactive) | 42.2 µM (inactive) | 87.5 µM (inactive) | 23.8 µM (inactive) | 26.7 µM (inactive) |  |  | 
CCOC(=O)c1ccc(/N=C\c2ccc(N(CCC#N)CCC#N)cc2)cc1 | 99.5 µM (inactive) | 43.2 µM (inactive) | 46.9 µM (inactive) | 53.7 µM (inactive) | > 100 µM (inactive) | 21.4 | > 100 µM (inactive) | 44.2 µM (inactive) | 36.5 µM (inactive) | > 100 µM (inactive) | 41.6 µM (inactive) | > 100 µM (inactive) | 89.1 µM (inactive) | > 100 µM (inactive) | > 100 µM (inactive) | 39.6 µM (inactive) | 27.2 µM (inactive) |  |  | 
CCN(CC)c1c(C(=O)/C=C/c2ccc(Cl)cc2)c(-c2ccccc2)nn(C)c1=O | 1.85 µM (inactive) | 1.87 µM (inactive) | 1.97 µM (inactive) | 2.03 µM (inactive) | 2.07 µM (inactive) | 1.69 | 1.63 µM (inactive) | 1.9 µM (inactive) | 2.08 µM (inactive) | 1.68 µM (inactive) | 1.66 µM (inactive) | 1.74 µM (inactive) | 1.64 µM (inactive) | 1.47 µM (inactive) | 1.62 µM (inactive) | 2.14 µM (inactive) | 1.73 µM (inactive) |  |  | 
COc1ccc(C(=O)C(CC2C(=O)CC(C)(C)C(C(=O)C(=O)Nc3c(C)cccc3C)C2=O)c2ccc(OC)cc2)cc1 (stereo not drawn) | > 100 µM (inactive) | > 100 µM (inactive) | > 100 µM (inactive) | > 100 µM (inactive) | > 100 µM (inactive) | > 100 | > 100 µM (inactive) | > 100 µM (inactive) | > 100 µM (inactive) | > 100 µM (inactive) | > 100 µM (inactive) | > 100 µM (inactive) | > 100 µM (inactive) | > 100 µM (inactive) | > 100 µM (inactive) | > 100 µM (inactive) | 70.1 µM (inactive) | > 100 µM (inactive) |  | > 100 µM (inactive)
CC1CCN(C(C)C)P(=S)(Cc2ccccc2)O1 (stereo not drawn) | > 100 µM (inactive) | > 100 µM (inactive) |  | > 100 µM (inactive) | 75.3 µM (inactive) | > 100 |  | > 100 µM (inactive) | > 100 µM (inactive) | 92.9 µM (inactive) | 84.3 µM (inactive) | > 100 µM (inactive) | > 100 µM (inactive) |  | 13.6 µM (inactive) | 75 µM (inactive) | > 100 µM (inactive) | > 100 µM (inactive) | 11.2 µM (inactive) | 
O/N=C1/C(=C/c2ccc(Br)cc2)CCCC1C(NO)c1ccc(Br)cc1 (stereo not drawn) | 16.8 µM (inactive) | 17 µM (inactive) | 18 µM (inactive) | 15.3 µM (inactive) | > 10 µM (inactive) | 17.3 | 12.6 µM (inactive) | 20.4 µM (inactive) | 15.4 µM (inactive) | > 10 µM (inactive) | 10.4 µM (inactive) | 11.4 µM (inactive) | 16.1 µM (inactive) | 15.6 µM (inactive) | 18.6 µM (inactive) | 18.3 µM (inactive) | 16 µM (inactive) |  |  | 
O=C1c2cn[nH]c2N=C(Nc2ccccc2)C1/N=C/c1ccc([N+](=O)[O-])cc1 (stereo not drawn) | > 10 µM (inactive) | > 10 µM (inactive) | > 10 µM (inactive) |  | > 10 µM (inactive) |  |  | > 10 µM (inactive) | > 10 µM (inactive) | > 10 µM (inactive) | > 10 µM (inactive) | > 10 µM (inactive) | > 10 µM (inactive) |  |  | > 10 µM (inactive) | > 10 µM (inactive) | > 10 µM (inactive) |  | > 10 µM (inactive)
C[C@]12CC[C@H]3[C@@H](CC=C4C[C@@H](N5CCCC5)CC[C@@]43C)[C@@H]1C/C(=C\c1ccc([N+](=O)[O-])cc1)[C@@H]2O | 5.77 µM (inactive) | 15.9 µM (inactive) | 3.21 µM (inactive) | 16.6 µM (inactive) |  | 13.8 | 13 µM (inactive) | 16.4 µM (inactive) | 16.6 µM (inactive) | 19.7 µM (inactive) | 12.1 µM (inactive) |  |  | 19.9 µM (inactive) | 14.1 µM (inactive) | 17.5 µM (inactive) | 15.1 µM (inactive) | 16.9 µM (inactive) | 20.7 µM (inactive) | 
CCOc1ccc(NC(=O)C(=O)CC(=O)C2=C(C)Nc3ccccc3S2)cc1 | > 50 µM (inactive) | > 50 µM (inactive) | > 50 µM (inactive) | > 50 µM (inactive) | > 50 µM (inactive) | > 50 | > 50 µM (inactive) | > 50 µM (inactive) | > 50 µM (inactive) | > 50 µM (inactive) | > 50 µM (inactive) | > 50 µM (inactive) | > 50 µM (inactive) | > 50 µM (inactive) | > 50 µM (inactive) | > 50 µM (inactive) | > 50 µM (inactive) |  |  | 
CC(=O)OCC1OC(n2c(=O)n(-c3ccccc3)c(=O)c3ccccc32)C(OC(C)=O)C(OC(C)=O)C1OC(C)=O (stereo not drawn) | > 100 µM (inactive) | > 100 µM (inactive) | 53.7 µM (inactive) | > 100 µM (inactive) | > 100 µM (inactive) | > 100 | > 100 µM (inactive) | > 100 µM (inactive) | > 100 µM (inactive) | > 100 µM (inactive) | > 100 µM (inactive) | > 100 µM (inactive) | > 100 µM (inactive) | > 100 µM (inactive) | > 100 µM (inactive) | > 100 µM (inactive) | > 100 µM (inactive) |  |  | 
O=c1oc2c(O)c(O)c(O)c3c(=O)oc4c(O)c(O)cc1c4c23 [FLAVELLAGIC ACID] | 62.8 µM (inactive) | 73.1 µM (inactive) | 29.2 µM (inactive) | 99.5 µM (inactive) | > 100 µM (inactive) | > 100 | > 100 µM (inactive) | 18 µM (inactive) | > 100 µM (inactive) | > 100 µM (inactive) | 16.2 µM (inactive) | > 100 µM (inactive) | 71.4 µM (inactive) | > 100 µM (inactive) | > 100 µM (inactive) | > 100 µM (inactive) | 38.4 µM (inactive) |  |  | 
